Measured values published in US5145951A, “Peptides retroviral protease inhibitors comprising 2-amino-2-methylpropionic acid” (priority 1990, dated 1992).
Starred links: 1 amine or outer side, 2 acyl side, 3 side chain; linkers in the order of their positions; H or OH if unused. Non-standard residues stand in square brackets, D forms with d. Residues, ends and D or L forms follow the SMILES beside them. *: point of attachment. X1 = CC(C)C(C[C@H](O)[C@H](CC1CCCCC1)N[*:1])C(=O)[*:2]; NHCH2(2-pyridyl) = c1ccc(CN*)nc1; Boc = CC(C)(C)OC(=O)*; Aib = CC(C)(N)C(=O)O

Target: T1, purified HIV protease (Human immunodeficiency virus type 1 group M subtype B, UniProt P04585)
T1 construct: purified HIV protease was incubated with synthetic peptide
Assay: HIV-specific protease enzyme test (RP-HPLC analysis of cleavage of a synthetic Gag peptide)
Format: biochemical
Conditions: substance concentration causing 50% inhibition of protease activity; synthetic peptide substrate imitating Gag cleavage site
Protocol: The results of the examples shown below were determined by the HIV test system described in the following references [compare Hansen, J., Billich, S., Schulze, T., Sukro, S. and Molling, K. (1988), EMBO Journal, Vol. 7, No. 6, pp. 1785-1791]: purified HIV protease was incubated with synthetic peptide which imitates a cleavage site in the Gag precursor protein and represents an in vivo cleavage site of the HIV protease. The resulting cleavage products of the synthetic peptide were analyzed by means of Reverse Phase High Performance Liquid Chromatography (RP-HPLC). The IC50 values indicated relate to the substance concentration which causes a 50% inhibition of the protease activity under the abovementioned test conditions.

Structure (SMILES) | IC50 [nM]
CC[C@H](C)[C@H](NC(=O)C(C[C@H](O)[C@H](CC1CCCCC1)NC(=O)[C@H](CC(N)=O)NC(=O)C(C)(C)NC(=O)OC(C)(C)C)C(C)C)C(=O)NCc1ccccn1 (stereo partly drawn) [Example I, Nα-{Nδ-{Nα-{1-[2-(1,1-dimethylethoxycarbonyl)amino-2-methyl]propanoyl}-(S)-asparaginyl}-1-[5-(S)-amino-6-cyclohexyl-4-(S)-hydroxy-2-(1-methyl)ethyl]-hexanoyl}-(S)-isoleucinyl-2-pyridylmethylamide] | 500
CC[C@H](C)[C@H](NC(=O)C(C[C@H](O)[C@H](CC1CCCCC1)NC(=O)[C@H](CC(N)=O)NC(=O)[C@H](Cc1ccccc1)NC(=O)C(C)(C)NC(=O)OC(C)(C)C)C(C)C)C(=O)NCc1ccccn1 (some centres unmarked) [II] (Boc-[Aib]FN[X1]I-{NHCH2(2-pyridyl)}) | 50
CC[C@H](C)[C@H](NC(=O)C(C[C@H](O)[C@H](CC1CCCCC1)NC(=O)[C@H](CC(N)=O)NC(=O)[C@H](Cc1ccccc1)NC(=O)[C@H](CO)NC(=O)C(C)(C)NC(=O)OC(C)(C)C)C(C)C)C(=O)NCc1ccccn1 (some centres unmarked) [III] (Boc-[Aib]SFN[X1]I-{NHCH2(2-pyridyl)}) | 5
CC[C@H](C)[C@H](NC(=O)C(C[C@H](O)[C@H](CC1CCCCC1)NC(=O)[C@@H](NC(=O)C(C)(C)NC(=O)OC(C)(C)C)C(C)C)C(C)C)C(=O)NCc1ccccn1 (some centres unmarked) [V] | 50
CC[C@H](C)[C@H](NC(=O)C(C[C@H](O)[C@H](CC1CCCCC1)NC(=O)C(C)(C)NC(=O)OC(C)(C)C)C(C)C)C(=O)NCc1ccccn1 (stereo partly drawn) [Example IV, Nα-{Nδ-{1-[2-(1,1-dimethylethoxycarbonyl)amino-2-methyl]propanoyl}-1-[5-(S)-amino-6-cyclohexyl-4-(S)-hydroxy-2-(1-methyl)ethoyl]hexanoyl}-(S)-isoleucinyl-2-pyridylmethylamide] | 100
